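Results reflect a 48-hour exposure of cells in 96-well plates to compound at five concentrations. GI50 marks 50% less growth.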 Activity calls are given as the source filed them. No stated cut-off is given here; in the data, active = GI50 up to about 1.1 µM and inactive = higher.
Key:
Test in all cases: NCI-60 cell line screen, 48 h
HOP-62 = system: HOP-62
SK-MEL-2 = system: SK-MEL-2
TK-10 = system: TK-10
MOLT-4 = system: MOLT-4
HOP-92 = system: HOP-92
NCI-H23 = system: NCI-H23
M19-MEL = system: M19-MEL
NCI-H522 = system: NCI-H522
KM12 = system: KM12
RXF 393 = system: RXF 393
UO-31 = system: UO-31
U-251 = system: U-251
HOP-18 = system: HOP-18
OVCAR-3 = system: OVCAR-3
HL-60 = system: HL-60
XF498 = system: XF498
SK-MEL-28 = system: SK-MEL-28
LOX IMVI = system: LOX IMVI
786-0 = system: 786-0
SF-295 = system: SF-295
SNB-78 = system: SNB-78
SNB-75 = system: SNB-75
DMS-114 = system: DMS-114
M14 = system: M14
KM-20L2 = system: KM-20L2
COLO 205 = system: COLO 205
A498 = system: A498
SW-620 = system: SW-620
Malme-3M = system: Malme-3M
K562 = system: K562
DLD-1 = system: DLD-1
OVCAR-8 = system: OVCAR-8
SF-539 = system: SF-539
IGROV-1 = system: IGROV-1
CAKI-1 = system: CAKI-1
A549 = system: A549
RXF 631 = system: RXF 631
SNB-19 = system: SNB-19
SN12C = system: SN12C
CCRF-CEM = system: CCRF-CEM
ACHN = system: ACHN
OVCAR-5 = system: OVCAR-5
NCI-H226 = system: NCI-H226
SF-268 = system: SF-268
UACC-257 = system: UACC-257
UACC-62 = system: UACC-62
NCI-H460 = system: NCI-H460
HCT-116 = system: HCT-116
OVCAR-4 = system: OVCAR-4
SK-MEL-5 = system: SK-MEL-5
SK-OV-3 = system: SK-OV-3
RPMI-8226 = system: RPMI-8226
EKVX = system: EKVX
HCC 2998 = system: HCC 2998
DMS-273 = system: DMS-273
HT-29 = system: HT-29
LXFL 529 = system: LXFL 529
HCT-15 = system: HCT-15

CC(C)(C)C(=O)C1CC(=O)c2ccccc2C1=O (stereo not given)
GI50 (HOP-62): 25.2 µM (inactive) | GI50 (SK-MEL-2): 10.6 µM (inactive) | GI50 (TK-10): 34.1 µM (inactive) | GI50 (MOLT-4): 27.8 µM (inactive) | GI50 (HOP-92): 24.8 µM (inactive) | GI50 (NCI-H23): 20.7 µM (inactive) | GI50 (M19-MEL): 32.9 µM (inactive) | GI50 (NCI-H522): 23.6 µM (inactive) | GI50 (KM12): 31.8 µM (inactive) | GI50 (RXF 393): 22.2 µM (inactive) | GI50 (UO-31): 21.7 µM (inactive) | GI50 (U-251): 34 µM (inactive) | GI50 (HOP-18): 37.5 µM (inactive) | GI50 (OVCAR-3): 24.3 µM (inactive) | GI50 (HL-60): 20.7 µM (inactive) | GI50 (XF498): 34.4 µM (inactive) | GI50 (SK-MEL-28): 20.5 µM (inactive) | GI50 (LOX IMVI): 40.8 µM (inactive) | GI50 (786-0): 32.6 µM (inactive) | GI50 (SF-295): 36.2 µM (inactive) | GI50 (SNB-78): 27.5 µM (inactive) | GI50 (SNB-75): 5.98 µM (inactive) | GI50 (DMS-114): 33.9 µM (inactive) | GI50 (M14): 39.3 µM (inactive) | GI50 (KM-20L2): 38 µM (inactive) | GI50 (COLO 205): 31.8 µM (inactive) | GI50 (A498): 42.3 µM (inactive) | GI50 (SW-620): 32.4 µM (inactive) | GI50 (Malme-3M): 16.3 µM (inactive) | GI50 (K562): 40.6 µM (inactive) | GI50 (DLD-1): 30.4 µM (inactive) | GI50 (OVCAR-8): 37 µM (inactive) | GI50 (SF-539): 34.3 µM (inactive) | GI50 (IGROV-1): 33.7 µM (inactive) | GI50 (CAKI-1): 39.6 µM (inactive) | GI50 (A549): 38.2 µM (inactive) | GI50 (RXF 631): 36.7 µM (inactive) | GI50 (SNB-19): 24 µM (inactive) | GI50 (SN12C): 28.2 µM (inactive) | GI50 (CCRF-CEM): 33.4 µM (inactive) | GI50 (ACHN): 44.7 µM (inactive) | GI50 (OVCAR-5): 37.1 µM (inactive) | GI50 (NCI-H226): 35.2 µM (inactive) | GI50 (SF-268): 21.8 µM (inactive) | GI50 (UACC-257): 18.2 µM (inactive) | GI50 (UACC-62): 25.8 µM (inactive) | GI50 (NCI-H460): 29.7 µM (inactive) | GI50 (HCT-116): 21.4 µM (inactive) | GI50 (OVCAR-4): 33 µM (inactive) | GI50 (SK-MEL-5): 32.4 µM (inactive) | GI50 (SK-OV-3): 27.1 µM (inactive) | GI50 (RPMI-8226): 23 µM (inactive) | GI50 (EKVX): 32.4 µM (inactive) | GI50 (HCC 2998): 23.4 µM (inactive)

O=C1CC[C@H]2CNC(=O)C[C@H]2C1
GI50 (HOP-62): > 100 µM (inactive) | GI50 (SK-MEL-2): > 100 µM (inactive) | GI50 (TK-10): > 100 µM (inactive) | GI50 (MOLT-4): > 100 µM (inactive) | GI50 (HOP-92): > 100 µM (inactive) | GI50 (NCI-H23): > 100 µM (inactive) | GI50 (M19-MEL): > 100 µM (inactive) | GI50 (NCI-H522): > 100 µM (inactive) | GI50 (KM12): > 100 µM (inactive) | GI50 (RXF 393): > 100 µM (inactive) | GI50 (UO-31): > 100 µM (inactive) | GI50 (U-251): > 100 µM (inactive) | GI50 (OVCAR-3): > 100 µM (inactive) | GI50 (HL-60): > 100 µM (inactive) | GI50 (XF498): > 100 µM (inactive) | GI50 (SK-MEL-28): > 100 µM (inactive) | GI50 (LOX IMVI): > 100 µM (inactive) | GI50 (786-0): > 100 µM (inactive) | GI50 (SF-295): > 100 µM (inactive) | GI50 (SNB-78): > 100 µM (inactive) | GI50 (SNB-75): > 100 µM (inactive) | GI50 (M14): > 100 µM (inactive) | GI50 (COLO 205): > 100 µM (inactive) | GI50 (A498): > 100 µM (inactive) | GI50 (DMS-273): > 100 µM (inactive) | GI50 (SW-620): > 100 µM (inactive) | GI50 (Malme-3M): > 100 µM (inactive) | GI50 (K562): > 100 µM (inactive) | GI50 (DLD-1): > 100 µM (inactive) | GI50 (OVCAR-8): > 100 µM (inactive) | GI50 (SF-539): > 100 µM (inactive) | GI50 (IGROV-1): > 100 µM (inactive) | GI50 (CAKI-1): > 100 µM (inactive) | GI50 (A549): > 100 µM (inactive) | GI50 (RXF 631): > 100 µM (inactive) | GI50 (SNB-19): > 100 µM (inactive) | GI50 (SN12C): > 100 µM (inactive) | GI50 (CCRF-CEM): > 100 µM (inactive) | GI50 (HT-29): > 100 µM (inactive) | GI50 (SF-268): > 100 µM (inactive) | GI50 (UACC-257): > 100 µM (inactive) | GI50 (UACC-62): > 100 µM (inactive) | GI50 (NCI-H460): > 100 µM (inactive) | GI50 (HCT-116): > 100 µM (inactive) | GI50 (OVCAR-4): > 100 µM (inactive) | GI50 (LXFL 529): > 100 µM (inactive) | GI50 (SK-MEL-5): > 100 µM (inactive) | GI50 (SK-OV-3): > 100 µM (inactive) | GI50 (RPMI-8226): > 100 µM (inactive) | GI50 (HCT-15): > 100 µM | GI50 (EKVX): > 100 µM (inactive) | GI50 (HCC 2998): > 100 µM (inactive)

N#CC(C(=O)C(N)=O)c1ccccc1Cl (stereo not given)
GI50 (SK-MEL-2): > 100 µM (inactive) | GI50 (TK-10): > 100 µM (inactive) | GI50 (MOLT-4): > 100 µM (inactive) | GI50 (NCI-H23): > 100 µM (inactive) | GI50 (M19-MEL): > 100 µM (inactive) | GI50 (KM12): > 100 µM (inactive) | GI50 (RXF 393): > 100 µM (inactive) | GI50 (UO-31): > 100 µM (inactive) | GI50 (U-251): > 100 µM (inactive) | GI50 (HOP-18): > 100 µM (inactive) | GI50 (OVCAR-3): > 100 µM (inactive) | GI50 (HL-60): > 100 µM (inactive) | GI50 (XF498): > 100 µM (inactive) | GI50 (SK-MEL-28): > 100 µM (inactive) | GI50 (LOX IMVI): > 100 µM (inactive) | GI50 (786-0): > 100 µM (inactive) | GI50 (SF-295): > 100 µM (inactive) | GI50 (SNB-75): > 100 µM (inactive) | GI50 (DMS-114): > 100 µM (inactive) | GI50 (M14): > 100 µM (inactive) | GI50 (KM-20L2): > 100 µM (inactive) | GI50 (COLO 205): > 100 µM (inactive) | GI50 (A498): > 100 µM (inactive) | GI50 (DMS-273): > 100 µM (inactive) | GI50 (SW-620): > 100 µM (inactive) | GI50 (Malme-3M): > 100 µM (inactive) | GI50 (K562): > 100 µM (inactive) | GI50 (DLD-1): > 100 µM (inactive) | GI50 (OVCAR-8): > 100 µM (inactive) | GI50 (SF-539): > 100 µM (inactive) | GI50 (IGROV-1): > 100 µM (inactive) | GI50 (CAKI-1): > 100 µM (inactive) | GI50 (A549): > 100 µM (inactive) | GI50 (RXF 631): > 100 µM (inactive) | GI50 (SNB-19): > 100 µM (inactive) | GI50 (SN12C): > 100 µM (inactive) | GI50 (CCRF-CEM): > 100 µM (inactive) | GI50 (ACHN): > 100 µM (inactive) | GI50 (HT-29): > 100 µM (inactive) | GI50 (OVCAR-5): > 100 µM (inactive) | GI50 (NCI-H226): > 100 µM (inactive) | GI50 (SF-268): > 100 µM (inactive) | GI50 (UACC-257): > 100 µM (inactive) | GI50 (UACC-62): > 100 µM (inactive) | GI50 (NCI-H460): > 100 µM (inactive) | GI50 (HCT-116): > 100 µM (inactive) | GI50 (OVCAR-4): > 100 µM (inactive) | GI50 (LXFL 529): > 100 µM (inactive) | GI50 (SK-MEL-5): > 100 µM (inactive) | GI50 (SK-OV-3): > 100 µM (inactive) | GI50 (RPMI-8226): > 100 µM (inactive) | GI50 (HCT-15): > 100 µM | GI50 (EKVX): > 100 µM (inactive) | GI50 (HCC 2998): > 100 µM (inactive)

Source: ChEMBL document CHEMBL1201862, “PubChem BioAssay data set” (2004)
